Assay results taken from ChEMBL document CHEMBL5252519, “Design strategies, structure activity relationship and mechanistic insights for purines as kinase inhibitors” (Eur J Med Chem, 2016).

Assays:
[1] = molecular target: Cyclin-dependent kinase 2/cyclin A (Homo sapiens, UniProt P24941); assay: Inhibition of human CDK2/cyclinA using histone H1 as substrate incubated for 30 mins in presence of gamma[32P]ATP by phosphoimaging analysis; format: protein-complex assay
HMEC = assay: Inhibition of cell migration in HMECs at 10 uM measured after 16 hrs by fluorescence based assay; format: functional; conditions: Homo sapiens
[2] = Antiproliferative activity against HUVEC cells assessed as cell growth inhibition measured after 72 hrs by crystal violet staining based analysis; format: toxicity; conditions: human
[3] = molecular target: T1, Phosphatidylinositol 4,5-bisphosphate 3-kinase catalytic subunit delta isoform (Homo sapiens, UniProt O00329); assay: Inhibition of human PI3K-delta using PIP2 as substrate in presence of gamma[32P]ATP
T1 sequence (O00329 whole entry): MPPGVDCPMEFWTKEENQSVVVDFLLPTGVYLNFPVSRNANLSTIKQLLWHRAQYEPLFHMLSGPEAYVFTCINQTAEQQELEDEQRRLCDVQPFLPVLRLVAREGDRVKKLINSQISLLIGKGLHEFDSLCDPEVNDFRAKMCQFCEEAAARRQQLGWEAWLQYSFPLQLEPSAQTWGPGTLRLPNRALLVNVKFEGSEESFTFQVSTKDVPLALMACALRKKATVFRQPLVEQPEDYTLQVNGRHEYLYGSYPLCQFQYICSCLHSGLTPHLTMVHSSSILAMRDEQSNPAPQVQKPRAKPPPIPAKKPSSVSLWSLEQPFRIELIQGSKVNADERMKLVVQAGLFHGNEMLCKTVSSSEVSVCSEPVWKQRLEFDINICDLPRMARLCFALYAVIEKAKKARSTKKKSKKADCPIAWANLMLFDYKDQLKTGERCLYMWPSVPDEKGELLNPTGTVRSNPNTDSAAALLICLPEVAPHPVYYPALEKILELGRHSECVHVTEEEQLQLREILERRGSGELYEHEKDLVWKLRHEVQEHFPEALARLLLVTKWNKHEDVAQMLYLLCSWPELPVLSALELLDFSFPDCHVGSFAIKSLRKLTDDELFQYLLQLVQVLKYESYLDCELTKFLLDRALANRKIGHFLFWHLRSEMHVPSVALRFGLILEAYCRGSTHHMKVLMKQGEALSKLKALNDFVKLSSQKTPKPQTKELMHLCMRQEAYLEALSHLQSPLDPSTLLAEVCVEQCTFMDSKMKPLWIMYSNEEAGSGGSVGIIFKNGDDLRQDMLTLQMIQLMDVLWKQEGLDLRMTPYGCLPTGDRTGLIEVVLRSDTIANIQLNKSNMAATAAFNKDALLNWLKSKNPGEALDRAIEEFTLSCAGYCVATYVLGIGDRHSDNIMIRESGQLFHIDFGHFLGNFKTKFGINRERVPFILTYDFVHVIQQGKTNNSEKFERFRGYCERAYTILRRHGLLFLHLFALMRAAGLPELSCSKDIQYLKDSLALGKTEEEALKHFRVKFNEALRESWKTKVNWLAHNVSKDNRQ

MCF7 = assay: Cytotoxicity against human MCF7 cells incubated for 48 hrs by SRB assay; format: functional, cell-based; conditions: MCF7, 48 h
[4] = molecular target: T1, Phosphatidylinositol 4,5-bisphosphate 3-kinase catalytic subunit delta isoform; assay: Inhibition of PI3K-delta (unknown origin)
[5] = molecular target: Tyrosine-protein kinase SYK (Homo sapiens, UniProt P43405); assay: Inhibition of SYK (unknown origin) using biotinylated EDPDYEWPSA as substrate incubated for 30 mins in presence of 33P-ATP by Scintillation Proximity Assay
Janus Kinase (JAK) = Janus Kinase (JAK) (Homo sapiens, UniProt P52333+P23458+O60674+P29597); assay: Inhibition of JAK (unknown origin); format: protein assay
CDK9/Cyclin T = CDK9/Cyclin T (Homo sapiens, UniProt P50750); assay: Inhibition of CDK9/Cyclin T (unknown origin) using (YSPTSPS)3 peptide as substrate incubated for 30 mins in presence of gamma[33P]ATP by digital imaging analysis; format: protein-complex assay
Sequence of CDK9/Cyclin T (O60563 whole entry, canonical isoform): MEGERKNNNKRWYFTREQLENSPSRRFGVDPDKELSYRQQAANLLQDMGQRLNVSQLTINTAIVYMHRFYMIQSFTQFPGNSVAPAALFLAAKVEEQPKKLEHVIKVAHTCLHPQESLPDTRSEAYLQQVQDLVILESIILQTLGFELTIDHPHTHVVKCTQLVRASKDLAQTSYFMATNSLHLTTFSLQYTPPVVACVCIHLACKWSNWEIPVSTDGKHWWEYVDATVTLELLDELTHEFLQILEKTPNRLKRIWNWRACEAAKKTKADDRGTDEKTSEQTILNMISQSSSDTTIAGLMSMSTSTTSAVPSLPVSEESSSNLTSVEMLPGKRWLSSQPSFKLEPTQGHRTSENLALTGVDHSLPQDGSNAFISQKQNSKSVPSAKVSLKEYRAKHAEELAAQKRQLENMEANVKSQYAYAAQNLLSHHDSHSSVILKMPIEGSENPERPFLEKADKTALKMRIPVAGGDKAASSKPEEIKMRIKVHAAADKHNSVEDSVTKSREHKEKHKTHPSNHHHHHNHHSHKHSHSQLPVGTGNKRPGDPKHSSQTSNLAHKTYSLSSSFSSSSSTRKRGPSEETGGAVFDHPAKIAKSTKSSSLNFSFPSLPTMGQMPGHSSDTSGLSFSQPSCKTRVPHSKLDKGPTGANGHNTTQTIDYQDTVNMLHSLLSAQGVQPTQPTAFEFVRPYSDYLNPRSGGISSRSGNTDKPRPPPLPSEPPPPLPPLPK
Sequence of CDK9/Cyclin T (P50750 whole entry, canonical isoform): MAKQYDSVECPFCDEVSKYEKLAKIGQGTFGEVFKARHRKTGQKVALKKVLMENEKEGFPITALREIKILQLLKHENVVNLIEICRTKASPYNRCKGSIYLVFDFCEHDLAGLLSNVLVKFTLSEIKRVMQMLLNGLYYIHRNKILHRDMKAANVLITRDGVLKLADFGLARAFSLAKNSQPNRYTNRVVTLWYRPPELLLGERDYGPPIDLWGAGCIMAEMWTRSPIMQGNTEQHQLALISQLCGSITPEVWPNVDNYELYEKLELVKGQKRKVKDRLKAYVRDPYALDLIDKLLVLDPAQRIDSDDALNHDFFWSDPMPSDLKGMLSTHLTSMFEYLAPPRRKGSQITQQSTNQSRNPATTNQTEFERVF
Sequence of CDK9/Cyclin T (O60583 whole entry, further chain, canonical isoform): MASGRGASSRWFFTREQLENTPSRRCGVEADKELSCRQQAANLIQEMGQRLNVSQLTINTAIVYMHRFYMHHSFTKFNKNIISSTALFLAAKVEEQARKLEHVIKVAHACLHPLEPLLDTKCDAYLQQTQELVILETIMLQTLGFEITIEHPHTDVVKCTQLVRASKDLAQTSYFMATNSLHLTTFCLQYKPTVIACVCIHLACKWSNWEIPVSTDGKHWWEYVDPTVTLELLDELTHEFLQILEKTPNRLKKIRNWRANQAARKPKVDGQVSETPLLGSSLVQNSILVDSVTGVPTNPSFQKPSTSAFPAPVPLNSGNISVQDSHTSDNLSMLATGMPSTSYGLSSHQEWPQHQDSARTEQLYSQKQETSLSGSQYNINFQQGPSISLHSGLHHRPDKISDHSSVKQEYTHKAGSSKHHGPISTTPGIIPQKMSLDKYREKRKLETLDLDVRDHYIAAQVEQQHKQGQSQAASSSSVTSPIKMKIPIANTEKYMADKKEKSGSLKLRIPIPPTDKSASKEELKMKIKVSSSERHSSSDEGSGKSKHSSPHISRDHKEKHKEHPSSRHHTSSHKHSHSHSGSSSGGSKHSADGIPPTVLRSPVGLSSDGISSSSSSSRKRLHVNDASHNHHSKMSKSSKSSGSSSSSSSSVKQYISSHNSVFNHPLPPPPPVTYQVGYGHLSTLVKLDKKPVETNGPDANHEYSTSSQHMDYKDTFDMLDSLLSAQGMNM

[6] = molecular target: Phosphatidylinositol 4,5-bisphosphate 3-kinase catalytic subunit alpha isoform (Homo sapiens, UniProt P42336); assay: Inhibition of PI3K-p110alpha (unknown origin) incubated for 30 mins by fluorescence polarization assay
Sequence of Phosphatidylinositol 4,5-bisphosphate 3-kinase catalytic subunit alpha isoform (P42336 whole entry, canonical isoform): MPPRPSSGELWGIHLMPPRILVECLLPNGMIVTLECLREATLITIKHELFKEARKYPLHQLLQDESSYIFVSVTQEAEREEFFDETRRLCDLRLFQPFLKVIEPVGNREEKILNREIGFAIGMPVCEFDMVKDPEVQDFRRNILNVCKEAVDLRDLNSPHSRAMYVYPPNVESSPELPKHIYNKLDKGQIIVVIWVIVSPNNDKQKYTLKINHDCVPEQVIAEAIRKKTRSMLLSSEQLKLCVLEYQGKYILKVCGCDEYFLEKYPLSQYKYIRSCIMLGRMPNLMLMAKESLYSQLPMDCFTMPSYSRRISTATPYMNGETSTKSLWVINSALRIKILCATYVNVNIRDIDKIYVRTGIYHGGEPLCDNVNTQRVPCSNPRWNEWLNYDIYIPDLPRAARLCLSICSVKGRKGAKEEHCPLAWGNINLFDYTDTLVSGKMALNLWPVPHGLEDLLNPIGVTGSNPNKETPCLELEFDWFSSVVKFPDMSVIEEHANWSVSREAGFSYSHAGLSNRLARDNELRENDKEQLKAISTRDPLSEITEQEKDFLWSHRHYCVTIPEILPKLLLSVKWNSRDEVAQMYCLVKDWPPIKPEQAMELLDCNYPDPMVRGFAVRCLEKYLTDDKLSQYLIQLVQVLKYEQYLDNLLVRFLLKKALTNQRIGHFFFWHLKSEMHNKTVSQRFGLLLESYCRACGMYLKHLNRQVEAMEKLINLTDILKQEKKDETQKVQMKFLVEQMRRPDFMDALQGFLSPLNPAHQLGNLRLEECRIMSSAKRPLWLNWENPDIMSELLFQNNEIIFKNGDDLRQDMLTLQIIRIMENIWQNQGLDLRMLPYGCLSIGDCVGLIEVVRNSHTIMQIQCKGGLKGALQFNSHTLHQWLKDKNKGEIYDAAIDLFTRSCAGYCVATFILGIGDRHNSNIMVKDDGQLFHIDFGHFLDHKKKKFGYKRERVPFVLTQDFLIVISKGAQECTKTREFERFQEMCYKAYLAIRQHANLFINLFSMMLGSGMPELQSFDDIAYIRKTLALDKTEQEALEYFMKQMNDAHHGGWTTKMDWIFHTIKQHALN

[7] = molecular target: Cyclin-dependent kinase 2/cyclin E (Homo sapiens, UniProt P24941); assay: Inhibition of CDK2/Cyclin E (unknown origin) using histone as substrate incubated for 30 mins in presence of gamma[33P]ATP by digital imaging analysis; format: protein-complex assay
[8] = molecular target: Serine/threonine-protein kinase mTOR (Homo sapiens, UniProt P42345); assay: Inhibition of mTOR (unknown origin)

**Q.** With `CC(C)C(CO)Nc1nc(Nc2cccc(Cl)c2)c2ncn(C(C)C)c2n1` (centres undefined) as the molecule, how does the IC50 [1] read?
**A.** < 50 nM

**Q.** With `CC[C@H](CO)Nc1nc(NCc2cccc(OC)c2O)c2ncn(C(C)C)c2n1` as the molecule, how does the inhibition at 10 µM (HMEC) read?
**A.** 54%

**Q.** What about the EC50 at 72 h [2] of the same molecule?
**A.** 7120 nM

**Q.** With `CC[C@@H](CO)Nc1nc(NCc2cccc(OC)c2O)c2ncn(C(C)C)c2n1` as the molecule, how does the inhibition at 10 µM (HMEC) read?
**A.** 14%

**Q.** What about the EC50 at 72 h [2] of the same molecule?
**A.** 2850 nM

**Q.** For `CC(C)[C@H](CO)Nc1nc(Nc2ccc(Cl)c(N)c2)c2ncn(C(C)C)c2n1`, which IC50 [1] is on record?
**A.** < 50 nM

**Q.** For `CC[C@H](Nc1ncnc2[nH]cnc12)c1nc2cccc(Cl)c2c(=O)n1-c1cc(F)cc(F)c1`, which IC50 [3] is on record?
**A.** 45 nM

**Q.** With `CCC(Nc1ncnc2[nH]cnc12)c1nc2cccc(Cl)c2c(=O)n1-c1c(F)cccc1F` (centres undefined) as the molecule, how does the IC50 [3] read?
**A.** 26 nM

**Q.** Which IC50 [3] does the source give for `CCC(Nc1ncnc2[nH]cnc12)c1nc2cccc(C)c2c(=O)n1-c1cc(F)cc(F)c1` (centres undefined) here?
**A.** 12 nM

**Q.** With `CC(=O)N1N=C(c2ccc(Nc3ncnc4c3c(C)nn4-c3ccccc3)cc2)CC1c1ccc(Cl)cc1` (centres undefined) as the molecule, how does the IC50 (MCF7) read?
**A.** 14900 nM

**Q.** For `OCCn1cnc2c(-c3cn[nH]c3)nc(N3CCOCC3)nc21`, which IC50 [4] is on record?
**A.** < 30 nM

**Q.** With `C/C=N/Nc1ccc(Nc2nc(NCC)c3nc[nH]c3n2)cc1` as the molecule, how does the IC50 [5] read?
**A.** 5 nM

**Q.** Which IC50 (Janus Kinase (JAK)) does the source give for `NC(=O)C1C2C=CC(C2)C1Nc1nc(Nc2cccc(S(N)(=O)=O)c2)nc2[nH]cnc12` (centres undefined) here?
**A.** < 1 nM

**Q.** Which IC50 (Janus Kinase (JAK)) does the source give for `CC(C)Oc1cccc(Nc2nc(NC3C4C=CC(C4)C3C(N)=O)c3nc[nH]c3n2)c1` (centres undefined) here?
**A.** < 1 nM

**Q.** For `c1nc2c(NC3CC4CCC3C4)nc(Nc3ccc(N4CCCCC4)cc3)nc2[nH]1` (centres undefined), which IC50 (Janus Kinase (JAK)) is on record?
**A.** < 1 nM

**Q.** For `CCC(CO)Nc1nc(NCc2cc(C)ccc2O)c2ncn(C(C)C)c2n1` (centres undefined), which IC50 (CDK9/Cyclin T) is on record?
**A.** 6 nM

**Q.** With `CC(C)Nc1nc(Nc2ccc(S(=O)(=O)N(C)C)cc2)nc2[nH]cnc12` as the molecule, how does the IC50 [5] read?
**A.** 5 nM

**Q.** For `Cc1nc(N)ncc1-c1nc(N2CCOCC2)c2nc(C(C)(C)C)n(CCO)c2n1`, which IC50 [6] is on record?
**A.** < 10 nM

**Q.** Which IC50 (Janus Kinase (JAK)) does the source give for `COc1cc(Nc2nc(NC3C4C=CC(C4)C3C(N)=O)c3nc[nH]c3n2)cc(OC)c1OC` (centres undefined) here?
**A.** < 1 nM

**Q.** With `CC[C@@H](CO)Nc1nc(NCc2ccccc2O)c2ncn(C(C)C)c2n1` as the molecule, how does the EC50 at 72 h [2] read?
**A.** 1590 nM

**Q.** Which IC50 [6] does the source give for `CC(C)(C)c1nc2c(N3CCOCC3)nc(-c3cccc4[nH]ccc34)nc2n1CCO` here?
**A.** < 10 nM

**Q.** Which IC50 [5] does the source give for `CC(C)(C)Nc1nc(Nc2ccc(CC(=O)O)cc2)nc2[nH]cnc12` here?
**A.** 5 nM

**Q.** With `Cc1nn(-c2ccccc2)c2ncn(N)c(=O)c12` as the molecule, how does the IC50 (MCF7) read?
**A.** 89200 nM

**Q.** Which IC50 (CDK9/Cyclin T) does the source give for `COc1cccc(CNc2nc(NC3CCCCC3N)nc3c2ncn3C(C)C)c1O` (centres undefined) here?
**A.** 7 nM

**Q.** What does the source list for `COc1cccc(CNc2nc(NC3CCC(N)CC3)nc3c2ncn3C(C)C)c1O` (centres undefined)?
**A.** IC50 [7]: 20 nM; IC50 (CDK9/Cyclin T): 9 nM

**Q.** Which IC50 (Janus Kinase (JAK)) does the source give for `NC(=O)[C@@H]1[C@H](Nc2nc(Nc3cccc(S(N)(=O)=O)c3)nc3[nH]cnc23)[C@H]2C=C[C@@H]1C2` here?
**A.** < 1 nM

**Q.** For `Cc1nn(-c2ccccc2)c2ncnc(Nc3ccc(C(=O)N4CCOCC4)cc3)c12`, which IC50 (MCF7) is on record?
**A.** 14900 nM

**Q.** Which IC50 [4] does the source give for `CS(=O)(=O)N1CCN(CCn2cnc3c(-n4c(C(F)F)nc5ccccc54)nc(N4CCOCC4)nc32)CC1` here?
**A.** < 30 nM

**Q.** With `CC(C)n1cnc2c(NCc3cc(F)ccc3O)nc(NC3CCC(N)CC3)nc21` (centres undefined) as the molecule, how does the IC50 [7] read?
**A.** 20 nM

**Q.** What about the IC50 (CDK9/Cyclin T) of the same molecule?
**A.** 8 nM

**Q.** For `O=C(Nc1ccc(-c2nc(C3=CCOCC3)c3cnn(CC(F)(F)F)c3n2)cc1)Nc1cccnc1`, which IC50 [8] is on record?
**A.** 2.4 nM

**Q.** Which IC50 [1] does the source give for `CC(C)[C@H](CO)Nc1nc(Nc2ccc(Cl)c(C(=O)O)c2)c2ncn(C(C)C)c2n1` here?
**A.** < 50 nM

**Q.** Which IC50 [1] does the source give for `CC(C)[C@H](CO)Nc1nc(Nc2cccc(Cl)c2)c2ncn(C(C)C)c2n1` [PURVALANOLA] here?
**A.** < 50 nM
